Source: PubChem BioAssay (NCI)
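Cells were grown in 96-well plates and exposed to each compound for 48 hours at five concentrations; endpoints were interpolated linearly between bracketing concentrations, or set to the highest concentration if not reached. Abbreviation: GI50, concentration required for 50% inhibition of growth. TGI denotes the concentration required for complete inhibition of growth.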

Assays:
Experiment in all cases: NCI-60 cell line screen, 48 h
NCI-H522 lung = system: NCI-H522 lung
SK-MEL-5 melanoma = system: SK-MEL-5 melanoma
SN12C renal = system: SN12C renal
NCI-H23 lung = system: NCI-H23 lung
OVCAR-8 ovarian = system: OVCAR-8 ovarian
RXF 393 renal = system: RXF 393 renal
SF-539 CNS = system: SF-539 CNS
HOP-92 NSCLC = system: HOP-92 NSCLC
M14 melanoma = system: M14 melanoma
MDA-MB-435 = system: MDA-MB-435

| SMILES | TGI (NCI-H522 lung) [µM] | TGI (SK-MEL-5 melanoma) [µM] | TGI (SN12C renal) [µM] | TGI (NCI-H23 lung) [µM] | TGI (OVCAR-8 ovarian) [µM] | TGI (RXF 393 renal) [µM] | TGI (SF-539 CNS) [µM] | TGI (HOP-92 NSCLC) [µM] | TGI (M14 melanoma) [µM] | TGI (MDA-MB-435) [µM] | GI50 (SF-539 CNS) [µM] | GI50 (NCI-H522 lung) [µM] | GI50 (HOP-92 NSCLC) [µM] | GI50 (NCI-H23 lung) [µM] | GI50 (OVCAR-8 ovarian) [µM] | GI50 (M14 melanoma) [µM] | GI50 (RXF 393 renal) [µM] |
| --- | --- | --- | --- | --- | --- | --- | --- | --- | --- | --- | --- | --- | --- | --- | --- | --- | --- |
| COc1ccc(C2=NN(c3ccccc3)C[N+](c3ccc(OC)cc3)=N2)cc1 | 30 | 29.8 | > 100 | 93.1 | > 100 | 72.1 | – | – | – | – | – | – | – | – | – | – | – |
| Cc1cn(Cc2cnnn2CC2OC(n3cc(C)c(=O)[nH]c3=O)CC2O)c(=O)[nH]c1=O (centres undefined) | – | > 100 | > 100 | > 100 | > 100 | > 100 | > 100 | > 100 | > 100 | > 100 | – | – | – | – | – | – | – |
| CC1(c2ccc[n+](Cc3ccccc3)c2)OCCO1 | > 100 | > 100 | > 100 | > 100 | > 100 | > 100 | > 100 | – | > 100 | – | – | – | – | – | – | – | – |
| c1cn(C23C4C5C6C4C2C6C53)cn1 (centres undefined) | > 100 | > 100 | > 100 | > 100 | > 100 | – | > 100 | – | > 100 | > 100 | – | – | – | – | – | – | – |
| O=C(c1cc(Cl)ccc1Cl)N1CCN(C(=O)c2cc(Cl)ccc2Cl)CC1 | > 100 | > 100 | > 100 | > 100 | > 100 | > 100 | > 100 | > 100 | > 100 | – | – | – | – | – | – | – | – |
| O=C(Nc1ccccc1)N(CCCCN(Cc1ccccc1)C(=O)Nc1ccccc1)Cc1ccccc1 | > 100 | > 100 | > 100 | > 100 | > 100 | > 100 | – | > 100 | > 100 | > 100 | – | – | – | – | – | – | – |
| COC1OC2COC1(OC)C1OC(C)(C)OC21 (centres undefined) | > 100 | > 100 | > 100 | > 100 | > 100 | > 100 | – | – | > 100 | > 100 | – | – | – | – | – | – | – |
| CCOC(=O)c1cc2c(C(=O)c3ccc([N+](=O)[O-])cc3)c(C(C)=O)ccc2[nH]1 | 36.5 | > 100 | > 100 | > 100 | – | 80.5 | > 100 | 44.6 | > 100 | > 100 | – | – | – | – | – | – | – |
| N#Cc1c(-c2ccc(Cl)cc2)c2c(n(C3OC(CO)C(O)C(O)C3O)c1=S)CCC2 (centres undefined) | – | 26 | > 100 | 70.6 | – | 63.2 | 42.3 | 60.7 | 47.2 | 46.1 | – | – | – | – | – | – | – |
| Nc1ccccc1CC(O)C(=O)O (centres undefined) | – | > 100 | > 100 | > 100 | > 100 | > 100 | > 100 | > 100 | > 100 | > 100 | – | – | – | – | – | – | – |
| COc1ccc(C(=O)/C=C/c2c(Cl)c3c(c(OC)c2Cl)OCC(=O)N3)cc1 | 3.24 | – | – | 4.85 | 16.3 | 3.54 | 4.85 | 8.88 | 5.12 | – | 2.21 | 1.55 | 2.44 | 2.23 | 2.85 | 2.03 | 1.79 |
| CC1(C)[C@H]2CC[C@]1(C)[C@H](OC(=O)NNC(=O)O[C@@H]1C[C@@H]3CC[C@@]1(C)C3(C)C)C2 | 30.7 | 25.5 | 24.7 | 34.9 | – | 24.7 | 29.9 | 33.6 | 35.6 | 64.4 | – | – | – | – | – | – | – |
| COc1ccc2nc3cc([N+](=O)[O-])ccc3c(Nc3ccc(S(=O)(=O)NC(C)=O)cc3)c2c1 | > 100 | > 100 | > 100 | > 100 | – | > 100 | > 100 | > 100 | > 100 | > 100 | – | – | – | – | – | – | – |
| CCN(CC)c1ccc2cc(C(=O)Nc3cccc4ccccc34)c(=N)oc2c1 | > 100 | > 100 | > 100 | – | > 100 | > 100 | > 100 | > 100 | > 100 | > 100 | – | – | – | – | – | – | – |
| COc1ccc2c(c1)c(CC(=O)O)c(C)n2C(=O)c1ccc(Cl)cc1 | > 100 | > 100 | > 100 | > 100 | > 100 | – | > 100 | > 100 | > 100 | > 100 | – | – | – | – | – | – | – |
| O=C(OCCN=c1c2ccccc2ccc2ccccc12)c1ccc([N+](=O)[O-])cc1 | – | > 100 | > 100 | > 100 | > 100 | > 100 | > 100 | > 100 | > 100 | > 100 | – | – | – | – | – | – | – |
| C[C@H]1C[C@H]2[C@@H]3C(C)(C)O[C@]4(O)C(=O)[C@]5(O)[C@@H](C)CC[C@H]1[C@]25C(=O)[C@]34C | 48 | 81.7 | > 100 | > 100 | > 100 | – | > 100 | 62.7 | > 100 | 96.3 | – | – | – | – | – | – | – |
| O=C(O)c1ccn(-c2cccc(-n3ccc(C(=O)O)n3)n2)n1 | > 100 | > 100 | > 100 | > 100 | > 100 | > 100 | > 100 | – | > 100 | > 100 | – | – | – | – | – | – | – |
| COc1ccc(C2N(NC(=O)c3ccncc3)C(=O)CS2(=O)=O)cc1F (centres undefined) | > 100 | > 100 | > 100 | > 100 | – | > 100 | – | > 100 | > 100 | – | – | – | – | – | – | – | – |
| Nc1ncnc2c1nnn2C1CCC(CP(=O)(O)O)C1 (centres undefined) | – | > 100 | > 100 | > 100 | > 100 | > 100 | > 100 | > 100 | > 100 | > 100 | – | – | – | – | – | – | – |
| COc1ccc(-c2cc(-c3ccc(Nc4ccnc5cc(Cl)ccc45)cc3)[nH]c(=O)c2C#N)c2ccccc12 | – | > 63.4 | 46.9 | > 91.6 | 5.41 | 28.3 | – | 30.8 | 4.93 | – | – | – | – | – | – | – | – |
| CCOC(=O)Cc1cc(OC)c(OC)cc1/C(Cl)=C(\C=O)c1ccc(OC)c(OC)c1 | – | 35.1 | 33.5 | 51.2 | 80.8 | > 100 | – | 10.3 | 32.1 | – | – | – | – | – | – | – | – |
| O=C1c2cc3c(cc2CC12Cc1ccc4c(c1C2=O)CCCC4)CCCC3 (centres undefined) | > 100 | > 100 | – | > 100 | > 100 | > 100 | > 100 | 64.2 | > 100 | > 100 | – | – | – | – | – | – | – |
